# Measured values published in ChEMBL document CHEMBL1131990, “The design of potent, selective, non-covalent, peptide thrombin inhibitors utilizing imidazole as a S1 binding element” (Bioorg Med Chem Lett, 1999).
# Legend:
# [1] = target: Prothrombin (Homo sapiens) (UniProt P00734); assay: Inhibitory activity against the human alpha-thrombin
# [2] = Anticoagulant activity for the compound by determining the concentration required to double the thrombin time.; assay type: functional
# [3] = target: Vitamin K-dependent protein C (Homo sapiens) (UniProt P04070); assay: Inhibitory activity against the activated human protein C
# [4] = Anticoagulant activity for the compound by determining the concentration required to double the prothrombin time.; assay type: functional
# [5] = target: Serine protease 1 (Homo sapiens) (UniProt P07477); assay: Inhibitory activity against the human trypsin
# [6] = Anticoagulant activity for the compound by determining the concentration required to double the activated partial thromboplastin time.; assay type: functional
# [7] = target: Tissue-type plasminogen activator (Homo sapiens) (UniProt P00750); assay: Inhibitory activity against the human tissue plasminogen activator
# [8] = target: Plasminogen (Homo sapiens) (UniProt P00747); assay: Inhibitory activity against the human plasmin
# [9] = target: Urokinase-type plasminogen activator (Homo sapiens) (UniProt P00749); assay: Inhibitory activity against the human urokinase
# [10] = target: Vitamin K-dependent protein C (Homo sapiens) (UniProt P04070); assay: Inhibitory activity against the human activated protein C
# Tissue-type plasminogen activator (Homo sapiens), sequence (P00750 36-562 limits assumed): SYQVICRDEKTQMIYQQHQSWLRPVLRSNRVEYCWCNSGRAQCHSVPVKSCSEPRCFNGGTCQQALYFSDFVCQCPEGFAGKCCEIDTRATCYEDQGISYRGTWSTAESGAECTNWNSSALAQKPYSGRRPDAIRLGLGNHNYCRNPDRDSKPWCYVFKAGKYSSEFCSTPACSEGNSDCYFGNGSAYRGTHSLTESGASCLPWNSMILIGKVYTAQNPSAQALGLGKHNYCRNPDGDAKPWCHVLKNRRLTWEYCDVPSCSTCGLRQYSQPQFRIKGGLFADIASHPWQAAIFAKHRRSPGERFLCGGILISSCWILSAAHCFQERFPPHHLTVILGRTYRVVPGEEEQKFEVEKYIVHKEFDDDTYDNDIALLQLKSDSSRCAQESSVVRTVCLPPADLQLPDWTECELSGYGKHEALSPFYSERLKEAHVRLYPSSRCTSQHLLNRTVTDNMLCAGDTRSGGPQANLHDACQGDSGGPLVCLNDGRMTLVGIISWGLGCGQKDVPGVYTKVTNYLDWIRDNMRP
# Vitamin K-dependent protein C (Homo sapiens), sequence (P04070 43-197 limits assumed): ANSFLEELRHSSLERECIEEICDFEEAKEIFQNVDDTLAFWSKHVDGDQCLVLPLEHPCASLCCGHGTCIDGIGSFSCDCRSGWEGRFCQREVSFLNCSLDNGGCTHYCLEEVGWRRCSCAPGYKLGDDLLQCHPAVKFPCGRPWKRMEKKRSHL
# Vitamin K-dependent protein C (Homo sapiens), sequence (P04070 212-461 limits assumed): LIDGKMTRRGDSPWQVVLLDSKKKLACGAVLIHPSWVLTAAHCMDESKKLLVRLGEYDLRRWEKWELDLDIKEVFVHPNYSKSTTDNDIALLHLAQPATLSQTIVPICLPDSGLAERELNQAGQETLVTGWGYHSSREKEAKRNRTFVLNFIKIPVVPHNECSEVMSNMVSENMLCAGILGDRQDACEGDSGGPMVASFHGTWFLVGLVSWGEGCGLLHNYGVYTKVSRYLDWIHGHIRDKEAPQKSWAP
# Plasminogen (Homo sapiens), sequence (P00747 97-580 limits assumed): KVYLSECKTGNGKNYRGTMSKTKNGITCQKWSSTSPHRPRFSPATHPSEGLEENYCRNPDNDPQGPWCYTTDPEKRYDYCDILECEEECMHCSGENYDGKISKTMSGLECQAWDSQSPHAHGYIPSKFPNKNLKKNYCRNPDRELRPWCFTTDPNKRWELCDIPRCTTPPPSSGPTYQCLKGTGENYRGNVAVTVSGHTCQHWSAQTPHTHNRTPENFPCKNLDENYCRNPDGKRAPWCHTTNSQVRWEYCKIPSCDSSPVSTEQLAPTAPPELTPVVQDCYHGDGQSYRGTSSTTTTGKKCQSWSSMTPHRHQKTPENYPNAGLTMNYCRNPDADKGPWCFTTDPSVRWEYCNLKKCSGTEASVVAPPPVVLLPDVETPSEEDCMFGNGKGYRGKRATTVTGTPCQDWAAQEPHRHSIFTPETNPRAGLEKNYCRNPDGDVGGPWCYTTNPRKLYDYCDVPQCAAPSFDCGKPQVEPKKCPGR
# Plasminogen (Homo sapiens), sequence (P00747 581-810 limits assumed): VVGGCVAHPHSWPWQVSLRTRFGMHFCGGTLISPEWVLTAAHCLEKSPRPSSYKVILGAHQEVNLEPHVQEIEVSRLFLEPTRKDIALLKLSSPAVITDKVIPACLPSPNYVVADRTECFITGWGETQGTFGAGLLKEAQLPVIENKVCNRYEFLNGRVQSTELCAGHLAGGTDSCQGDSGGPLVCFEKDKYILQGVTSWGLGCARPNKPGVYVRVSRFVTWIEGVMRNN
# Serine protease 1 (Homo sapiens), sequence (P07477 whole entry): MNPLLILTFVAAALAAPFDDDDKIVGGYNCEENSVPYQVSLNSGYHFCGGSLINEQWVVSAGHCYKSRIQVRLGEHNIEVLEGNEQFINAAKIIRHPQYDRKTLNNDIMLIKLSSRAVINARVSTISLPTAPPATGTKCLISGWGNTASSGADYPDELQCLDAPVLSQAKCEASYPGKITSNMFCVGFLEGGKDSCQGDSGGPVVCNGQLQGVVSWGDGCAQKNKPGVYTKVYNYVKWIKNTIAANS
SMILES,K ass [1],K ass [3],K ass [5],K ass [7],K ass [8],K ass [9],K ass [10],Concentration [2],Concentration [4],Concentration [6]
NC(N)=NCCCCNC(=O)[C@@H]1CCCN1C(=O)[C@H](N)CC1CCCCC1,3e+07 l M-1,10000 l M-1,260000 M⁻¹,11000 l M-1,10000 l M-1,< 10000 l M-1,,44 ng/mL,770 ng/mL,490 ng/mL
CN[C@H](Cc1ccccc1)C(=O)N1CCC[C@H]1C(=O)N[C@H](C=O)CCCNC(=N)N,6.7e+08 l M-1,300000 l M-1,91 l M-1,,1.5e+06 l M-1,40000 l M-1,,41 ng/mL,1000 ng/mL,930 ng/mL
N[C@H](CC1CCCCC1)C(=O)N1CCC[C@H]1C(=O)NCCCCc1c[nH]cn1,1.3e+06 l M-1,,,,,,,,,
Cc1[nH]cnc1CCCNC(=O)[C@@H]1CCCN1C(=O)[C@H](N)CC1CCCCC1,2.3e+07 l M-1,,,,,,,,,
N[C@H](CC1CCCCC1)C(=O)N1CCC[C@H]1C(=O)NCCc1c[nH]cn1,4.4e+06 l M-1,,,,,,,,,
N[C@H](CC1CCCCC1)C(=O)N1CCC[C@H]1C(=O)NCCCc1c[nH]cn1,2e+07 l M-1,,10000 l M-1,< 10000 l M-1,< 10000 l M-1,< 10000 l M-1,< 10000 l M-1,74 ng/mL,1000 ng/mL,660 ng/mL

# Further lines, with some results ahead:
K ass [1],K ass [3],K ass [5],K ass [7],K ass [8],K ass [9],K ass [10],SMILES,Concentration [2],Concentration [4],Concentration [6]
1.6e+07 l M-1,,,,,,,N[C@H](CC1CCCCC1)C(=O)N1CCC[C@H]1C(=O)NC/C=C/c1c[nH]cn1,,,
8.4e+07 l M-1,,,,,,,O=C(O)CN[C@H](CC1CCCCC1)C(=O)N1CCC[C@H]1C(=O)NC/C=C/c1c[nH]cn1,,,
7e+06 l M-1,,,,,,,N[C@H](CC1CCCCC1)C(=O)N1[C@H](C(=O)NC/C=C/c2c[nH]cn2)C[C@@H]2CCCC[C@@H]21,,,
3.4e+07 l M-1,,40000 l M-1,< 10000 l M-1,< 10000 l M-1,< 10000 l M-1,10000 l M-1,N[C@H](CC1CCCCC1)C(=O)N1[C@H](C(=O)NCCCc2c[nH]cn2)C[C@@H]2CCCC[C@@H]21,61 ng/mL,700 ng/mL,470 ng/mL
1e+08 l M-1,,290000 l M-1,< 10000 l M-1,< 10000 l M-1,< 10000 l M-1,20000 l M-1,O=C(O)CN[C@H](CC1CCCCC1)C(=O)N1CCC[C@H]1C(=O)NCCCc1c[nH]cn1,20 ng/mL,380 ng/mL,170 ng/mL
